# Experimental data as given in ChEMBL document CHEMBL1201862, “PubChem BioAssay data set” (2004).
#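 Method: 48-hour compound exposure of cells in 96-well plates, five concentrations, linear interpolation of endpoints. GI50 is the concentration that inhibits growth by half.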 The source made the active and inactive calls. No stated cut-off is given here; in the data, active = GI50 up to about 1.1 µM and inactive = higher.
# How the values were obtained:
# Experiment in all cases: NCI tumour cell line growth inhibition, 48 h
# [1] = tested on: MDA-MB-231
# [2] = tested on: SR
# [3] = tested on: OVCAR-4
# [4] = tested on: 786-0
# [5] = tested on: SK-OV-3
# [6] = tested on: K562
# [7] = tested on: BT-549
# [8] = tested on: A498
# [9] = tested on: SW-620
# [10] = tested on: EKVX
# [11] = tested on: OVCAR-5
# [12] = tested on: SF-539
# [13] = tested on: SK-MEL-2
# [14] = tested on: SF-268
# [15] = tested on: SNB-75
# [16] = tested on: MDA-N
# [17] = tested on: Malme-3M
# [18] = tested on: HL-60
# [19] = tested on: HCC 2998
# [20] = tested on: U-251
SMILES,GI50 [1],GI50 [2],GI50 [3],GI50 [4],GI50 [5],GI50 [6],GI50 [7],GI50 [8],GI50 [9],GI50 [10],GI50 [11],GI50 [12],GI50 [13],GI50 [14],GI50 [15],GI50 [16],GI50 [17],GI50 [18],GI50 [19],GI50 [20]
CC(C)(C)n1c(=O)[nH]n(C2NN=Cc3cccc4cccc2c34)c1=O (stereo not given),21.5 µM (inactive),11.4 µM (inactive),42.6 µM (inactive),57.1 µM (inactive),50 µM (inactive),17.9 µM (inactive),21.9 µM (inactive),25.5 µM (inactive),47.3 µM (inactive),15.4 µM (inactive),69 µM (inactive),16.9 µM (inactive),32.1 µM (inactive),26.1 µM (inactive),21.9 µM (inactive),26.4 µM (inactive),36 µM (inactive),12.9 µM (inactive),39.5 µM (inactive),44.2 µM (inactive)
C=CC(C)(C)N[C@@H](C(=O)N1CCC[C@H]1c1nc(-c2nc(C(=O)OCC=C(C)C)c(C)o2)c(C)o1)C(C)C,21.3 µM (inactive),18.1 µM (inactive),22.8 µM (inactive),19.5 µM (inactive),27.1 µM (inactive),36.5 µM (inactive),23.6 µM (inactive),19.7 µM (inactive),22.3 µM (inactive),32.3 µM (inactive),35.9 µM (inactive),16.3 µM (inactive),34 µM (inactive),20.9 µM (inactive),33.8 µM (inactive),18 µM (inactive),18.6 µM (inactive),20.6 µM (inactive),18.9 µM (inactive),21.1 µM (inactive)
CN(C)CCNc1ccc(CO)c2oc3ccc(O)cc3c(=O)c12,17 µM (inactive),1.14 µM (inactive),13.8 µM (inactive),8.61 µM (inactive),14.4 µM (inactive),10.2 µM (inactive),14.6 µM (inactive),12.7 µM (inactive),8.97 µM (inactive),21.9 µM (inactive),16.8 µM (inactive),12.3 µM (inactive),16.6 µM (inactive),9.31 µM (inactive),12.6 µM (inactive),12.8 µM (inactive),13.5 µM (inactive),10.8 µM (inactive),14 µM (inactive),12.4 µM (inactive)
CC(C)OC(=O)Nc1c([N+](=O)[O-])cc(C(F)(F)F)cc1[N+](=O)[O-],59.4 µM (inactive),> 67.5 µM (inactive),> 100 µM (inactive),15.9 µM (inactive),40.3 µM (inactive),> 46.5 µM (inactive),> 100 µM (inactive),> 100 µM (inactive),> 100 µM (inactive),> 100 µM (inactive),> 100 µM (inactive),23.9 µM (inactive),> 73.1 µM (inactive),39.4 µM (inactive),5.38 µM (inactive),> 100 µM (inactive),> 100 µM (inactive),> 100 µM (inactive),> 100 µM (inactive),97.9 µM (inactive)
CC(C)C1=C2CCC3(C)C(CCC4C5C6OCC5(CCC6(C)C)CCC43C)C2(C)CC1 (stereo not given),20 µM (inactive),11.3 µM (inactive),25.3 µM (inactive),17.7 µM (inactive),58.1 µM (inactive),,22.4 µM (inactive),20.4 µM (inactive),22.5 µM (inactive),19.1 µM (inactive),33 µM (inactive),16.9 µM (inactive),29.6 µM (inactive),28.8 µM (inactive),,13.7 µM (inactive),20.8 µM (inactive),8.81 µM (inactive),18.8 µM (inactive),19.1 µM (inactive)
CC(=O)OC(C)c1cc2c(s1)C(=O)c1scc(C(C)OC(C)=O)c1C2=O (stereo not given),0.473 µM (active),0.21 µM (active),0.298 µM (active),0.244 µM (active),2.16 µM (inactive),0.355 µM (active),0.218 µM (active),0.619 µM (active),0.298 µM (active),0.847 µM (active),0.57 µM (active),0.175 µM (active),0.227 µM (active),0.211 µM (active),0.185 µM (active),0.0817 µM (active),0.139 µM (active),0.646 µM (active),0.317 µM (active),0.25 µM (active)
O=C(CSc1n[nH]c(=O)[nH]c1=O)NNC(=O)c1cccc2nc3ccccc3nc12,> 100 µM (inactive),> 100 µM (inactive),> 100 µM (inactive),> 100 µM (inactive),> 100 µM (inactive),> 100 µM (inactive),29.2 µM (inactive),> 100 µM (inactive),> 100 µM (inactive),> 100 µM (inactive),> 100 µM (inactive),71.6 µM (inactive),> 100 µM (inactive),> 100 µM (inactive),,35.6 µM (inactive),26.5 µM (inactive),> 100 µM (inactive),40.8 µM (inactive),> 100 µM (inactive)
CCOC(=O)c1[nH]cc(C)c1-c1c[nH]c2ccccc12,9.57 µM (inactive),1.82 µM (inactive),41.5 µM (inactive),34.9 µM (inactive),32.3 µM (inactive),6.04 µM (inactive),26.5 µM (inactive),59.6 µM (inactive),27.9 µM (inactive),> 63.8 µM (inactive),39.7 µM (inactive),22.8 µM (inactive),29.4 µM (inactive),23.7 µM (inactive),28.1 µM (inactive),24.9 µM (inactive),42.7 µM (inactive),6.44 µM (inactive),19.9 µM (inactive),19.7 µM (inactive)
c1ccc2c(-c3cnc(-c4c[nH]c5ccccc45)cn3)c[nH]c2c1,91 µM (inactive),30 µM (inactive),> 100 µM (inactive),38.1 µM (inactive),49.1 µM (inactive),18.8 µM (inactive),> 100 µM (inactive),> 100 µM (inactive),18.9 µM (inactive),73.6 µM (inactive),46.1 µM (inactive),23.6 µM (inactive),70.3 µM (inactive),50.6 µM (inactive),22.6 µM (inactive),19.1 µM (inactive),38.9 µM (inactive),,42.6 µM (inactive),49.7 µM (inactive)
COc1ccc(C2C(C(=O)c3ccccc3)=C(O)C(O)(CC(=O)c3ccccc3)N2c2ccc(OC)cc2)cc1 (stereo not given),19.2 µM (inactive),4.66 µM (inactive),19.1 µM (inactive),16.8 µM (inactive),25.2 µM (inactive),16.6 µM (inactive),7.55 µM (inactive),44.6 µM (inactive),9.08 µM (inactive),24.6 µM (inactive),23.6 µM (inactive),24.4 µM (inactive),16.1 µM (inactive),33.7 µM (inactive),34.1 µM (inactive),20.9 µM (inactive),28 µM (inactive),5.78 µM (inactive),11.1 µM (inactive),8.09 µM (inactive)
CN1C(=O)c2ccccc2NC(=O)C12O[C@@H]2c1ccccc1 (stereo not given in full),67.6 µM (inactive),> 100 µM (inactive),> 100 µM (inactive),> 100 µM (inactive),,,> 100 µM (inactive),> 100 µM (inactive),> 100 µM (inactive),> 100 µM (inactive),> 100 µM (inactive),> 100 µM (inactive),> 100 µM (inactive),> 100 µM (inactive),62.8 µM (inactive),> 100 µM (inactive),> 100 µM (inactive),> 100 µM (inactive),> 100 µM (inactive),> 100 µM (inactive)
Cn1nc(/C=C\C(=O)N2CC(CCl)c3c2cc(N)c2ccccc32)cc1/C=C/C(=O)N1CC(CCl)c2c1cc(N)c1ccccc21 (stereo not given),< 0.01 µM (active),< 0.01 µM (active),< 0.01 µM (active),< 0.01 µM (active),< 0.01 µM (active),< 0.01 µM (active),< 0.01 µM (active),< 0.01 µM (active),< 0.01 µM (active),0.0215 µM (active),< 0.01 µM (active),< 0.01 µM (active),< 0.01 µM (active),< 0.01 µM (active),< 0.01 µM (active),< 0.01 µM (active),< 0.01 µM (active),,< 0.01 µM (active),< 0.01 µM (active)
CC(C)C(=O)NCC[C@@H](CNC(=O)OC(C)(C)C)NC(=O)OC(C)(C)C,> 100 µM (inactive),> 100 µM (inactive),> 100 µM (inactive),> 100 µM (inactive),> 100 µM (inactive),> 100 µM (inactive),> 100 µM (inactive),> 100 µM (inactive),> 100 µM (inactive),> 100 µM (inactive),> 100 µM (inactive),> 100 µM (inactive),> 100 µM (inactive),> 100 µM (inactive),> 100 µM (inactive),> 100 µM (inactive),> 100 µM (inactive),,> 100 µM (inactive),> 100 µM (inactive)
C=CCc1cccc2cc(C(=O)Nc3nc(C45CC6CC(CC(C6)C4)C5)cs3)c(=O)oc12,23.4 µM (inactive),28.9 µM (inactive),21 µM (inactive),23.2 µM (inactive),,27.4 µM (inactive),70 µM (inactive),25.2 µM (inactive),31.7 µM (inactive),25.1 µM (inactive),> 100 µM (inactive),> 100 µM (inactive),,10.7 µM (inactive),24.2 µM (inactive),45 µM (inactive),46 µM (inactive),34 µM (inactive),33 µM (inactive),20.2 µM (inactive)
